Assays:
[1] = biological target: T1, Solute carrier family 22 member 2 (Homo sapiens, UniProt O15244); format: functional, cell-based, Xenopus laevis, Oocyte
T1 sequence (O15244 whole entry): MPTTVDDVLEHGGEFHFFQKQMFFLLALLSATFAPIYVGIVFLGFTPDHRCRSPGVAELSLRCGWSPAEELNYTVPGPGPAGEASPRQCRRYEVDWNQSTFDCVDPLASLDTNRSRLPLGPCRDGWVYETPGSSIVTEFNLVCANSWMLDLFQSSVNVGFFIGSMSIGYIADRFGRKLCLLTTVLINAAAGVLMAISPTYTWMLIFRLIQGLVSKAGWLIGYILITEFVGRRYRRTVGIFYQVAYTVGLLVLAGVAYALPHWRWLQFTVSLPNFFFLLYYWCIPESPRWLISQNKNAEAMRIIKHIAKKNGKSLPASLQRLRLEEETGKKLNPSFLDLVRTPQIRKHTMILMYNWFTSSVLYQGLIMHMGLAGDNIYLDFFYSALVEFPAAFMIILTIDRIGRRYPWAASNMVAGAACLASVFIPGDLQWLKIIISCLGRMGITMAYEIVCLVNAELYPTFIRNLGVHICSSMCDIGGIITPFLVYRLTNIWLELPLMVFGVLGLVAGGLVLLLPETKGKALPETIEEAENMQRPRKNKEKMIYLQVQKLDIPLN

[2] = biological target: T2, Solute carrier family 22 member 1 (Homo sapiens, UniProt O15245); experiment: (§1) TP_TRANSPORTER: inhibition of Cimetidine uptake (Cimetidine: 1 uM) in Xenopus laevis oocytes; format: functional, cell-based, Oocyte
T2 sequence (O15245 whole entry): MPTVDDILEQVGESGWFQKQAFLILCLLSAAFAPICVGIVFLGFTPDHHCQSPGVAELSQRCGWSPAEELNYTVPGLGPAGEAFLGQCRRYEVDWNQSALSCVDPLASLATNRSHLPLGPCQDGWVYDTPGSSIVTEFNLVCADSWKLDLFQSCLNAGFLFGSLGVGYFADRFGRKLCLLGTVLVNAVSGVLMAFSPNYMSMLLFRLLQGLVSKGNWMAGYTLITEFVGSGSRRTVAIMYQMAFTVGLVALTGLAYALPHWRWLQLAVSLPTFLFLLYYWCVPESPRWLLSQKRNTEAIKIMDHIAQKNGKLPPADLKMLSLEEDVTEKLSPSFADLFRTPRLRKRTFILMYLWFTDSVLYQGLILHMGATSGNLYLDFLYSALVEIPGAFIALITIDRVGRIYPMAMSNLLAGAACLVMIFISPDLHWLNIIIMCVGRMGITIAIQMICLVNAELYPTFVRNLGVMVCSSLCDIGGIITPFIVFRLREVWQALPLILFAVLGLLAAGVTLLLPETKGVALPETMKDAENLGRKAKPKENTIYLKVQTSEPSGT

[3] = biological target: T1, Solute carrier family 22 member 2; experiment: as §1; format: functional, cell-based, Oocyte

Row | IC50 [2] | IC50 [3] | Compound | IC50 [1]
1 | – | – | CC[N+](CC)(CC)CC [TETRYLAMMONIUM] | 156 µM
2 | – | – | CCCC[N+](CCCC)(CCCC)CCCC [TETRABUTHYLAMMONIUM] | 120 µM
3 | 10 µM | 65 µM | [H]/N=C(/N)N/C(=N/[H])NCCc1ccccc1 [PHENFORMIN] | –
4 | – | 1700 µM | CN(C)C(=N)N=C(N)N [METFORMIN] | –
5 | – | – | CCC[N+](CCC)(CCC)CCC [TETRAPROPYLAMMONIUM] | 128 µM
